# Reference: PMC6222706, “Evaluation of the Antioxidant and Neuroprotectant Activities of New Asymmetrical 1,3-Diketones” (Molecules : A Journal of Synthetic Chemistry and Natural …, 2018)
# How the values were obtained:
# [1] = ABTS radical scavenging assay; format: biochemical; settings: for IC50: 30 min incubation, EtOH, absorbance at 734 nm; for ABTS-TEAC100: Trolox Equivalent Antioxidant Capacity vs 100 µM solution of the substance, from ABTS assay
# Experimental: ABTS^+ radical was produced by reacting 2,2′-azino-bis-3-ethylbenzthiazoline-6-sulphonic acid (ABTS) 7 mM with K2S2O8 2.45 mM, both reactants dissolved in water, and at the volume ratio of 1:1. The mixture was stored in the dark at room temperature for 16 h. The ABTS^+ solution was diluted to give an absorbance of 0.750 ± 0.025 at 734 nm in EtOH. All the compounds tested were dissolved in EtOH. 150 µL of each compound solution was added to the wells of the 96-well plate, followed by the addition of 50 µL of the ABTS^+ radical solution. Final compound concentrations tested were 0, 5, 10, 20, 50, 100, 150, 200 µM. The absorbance change at 734 nm was recorded after 30 min incubation in the dark, and the percentage of radical scavenging was calculated for each concentration relative to a blank containing no scavenger. The degree of decolorization was calculated as the percentage reduction of absorbance. The ABTS^+ radical scavenging activity was calculated as follows: Percentage ABTS^+ radical scavenging activity = {1 − [As/Ac]} × 100(1) where As is the absorbance of the ABTS^+ radical solution containing samples and Ac the absorbance of the control solution without antioxidant. The percentages of ABTS^+ radical reduced were plotted against compound concentration. Trolox was used as a reference antioxidant. All the assays were carried out three times by quadruplicate for each compound.
# [2] = FRAP (Ferric Reducing Antioxidant Power) assay; format: biochemical; settings: for FRAP-TEAC100: Trolox Equivalent Antioxidant Capacity vs 100 µM solution of the substance, from FRAP assay; for FRAP Assay (%) at 100 µM / FRAP Assay (%) at 200 µM: 30 min, 593 nm
# Experimental: The assay was carried out according to the method of Benzie et al. with slight modifications, in a 96-well microplate. FRAP reagent was prepared by mixing 10 mL of 300 mM acetate buffer with 1 mL of 10 mM 2,4,6-tripyridyl-S-triazine (TPTZ) in HCl 40 mM and 1mL of FeCl3·6H2O 20 mM. Firstly, 190 µL of the FRAP reagent were added to all wells of the 96-well plate, followed by the addition to the well of 10 µL of the test compounds dissolved in Ethanol to reach the final concentrations assayed (0, 5, 10, 20, 50, 100, 150, 200 µM). After 30 min incubation in the dark, the absorbance was read at 593 nm. Trolox was used as assay control. Three different assays were carried out by quadruplicate for each compound.
# [3] = DPPH radical scavenging assay; format: biochemical; settings: antioxidant concentration that decreases initial DPPH^• concentration by 50%; 30 min, 517 nm
# Experimental: The assay was performed in a 96-well microplate. A 0.2 mM solution of 2,2-diphenyl-1-picryl-hydrazyl-hydrate (DPPH) in ethanol was prepared. All the compounds tested were dissolved in EtOH. Firstly, 150 µL of each compound solution was added to the wells of the 96-well plate, followed by the addition of 50 µL of the DPPH solution. Final compound concentrations tested were 0, 5, 10, 20, 50, 100, 150, 200 µM. The change in absorbance at 517 nm was measured after 30 min incubation in the dark. The free radical scavenging activity was calculated as inhibition using the following Equation (2): Percentage DPPH radical scavenging activity = {1 − [As/Ac]} × 100(2) where As is the absorbance of the DPPH solution containing samples and Ac the absorbance of the control solution without antioxidant but with DPPH. The percentages of DPPH reduced were plotted against compound concentration. The experiment was also conducted using Trolox as reference antioxidant. Assays were performed three times by quadruplicate for each compound.
# [4] = Cytotoxicity in SH-SY5Y cells (MTT); format: cell-based; settings: human, SH-SY5Y neuronal cells, concentration reducing cell viability to 50% of control
# Experimental: So, to study the neuroprotectant potential of β-diketones in the SH-SY5Y cell line, we firstly need to determine their cytotoxicity in the same cellular model. […] In addition to that, within each series, the introduction of a second fluorine atom in the left-hand side phenyl ring decreases also the cytotoxicity.
# SH-SY5Y cells were seeded into 96-well plates at a density of 5 × 10^3 cells/well and grown in the incubator for 24 h. All compounds tested were dissolved and eventually further diluted in dimethylsulfoxide (DMSO). After overnight incubation, the cells were treated with different test concentrations (5, 10, 20, 50, 100, 150, 200 µM) in a final volume of 200 µL with four replicates each. […] Cell proliferation or viability was measured using the 3-(4,5-dimethylthiazol-2-yl)-2,5-diphenyl tetrazolium bromide (MTT) assay. After 24 h, 20 µL of MTT (5 mg/mL) was added to each well and the plate was incubated at 37 °C in the dark for 2 h. Supernatants were removed and the formazan crystals were solubilized in DMSO (200 µL/well), under 10 min shaking at room temperature. The reduction of MTT was quantified by absorbance at 570 nm Varioskan microplate reader (Thermo Fisher Scientific, Vantaa, Finland). Effects of the test compounds on cell viability were calculated using cells treated with vehicle as control. The data were subjected to linear regression analysis and the regression lines were plotted for the best fit. The IC50 (inhibition of cell viability) concentrations were calculated using the respective dose-response curves.
# [5] = Iron chelation capacity (Fe^+2-ferrozine complex); format: biochemical; settings: all experiments, both 50 and 200 µM
# Experimental: To decrease the level of free Fe^2+ that can reduce H2O2 to the ^•OH radical and produce other ROS, it is worth to evaluate the iron chelation capacity of new potential AOX compounds as potential new therapeutic agents against neurodegenerative diseases. […] In this assay ferrozine form complexes with Fe^+2 in a quantitative manner, and in the presence of chelating compounds this complex is disrupted.
# The iron chelation capacity was determined according to the method of Dinis et al., using ferrous chloride instead of ferrous sulfate. In this method, ferrozine can form complexes with a ferrous ion in a quantitative way yielding a red color with maximum absorbance at 562 nm. In the presence of other iron chelators, a decoloration is observed due to the competition with ferrozine for the metal. The assay was carried out in a 96 well plate. Serial dilutions of test compound (0, 5, 10, 25, 50, 100, 150, 200 µM) were dispensed (180 µL) into each well and then 10 µL of FeCl2 1 mM were added (final FeCl2 concentration, […]). After shaking the plate for 1 min, 10 µL of Ferrozine 2 mM were added. The mixture was shaken thoroughly and left to stand for 20 min at room temperature. The absorbance was measured at 562 nm with a Varioskan microplate reader. […] The compound iron chelation activity was calculated as the percentage of inhibition of the Fe^+2-Ferrozine complex by the formula in Equation (3):%Inhibition = {(Ao − As)/Ao} × 100(3) where Ao is the absorbance of the control, and As is the absorbance in the presence of the test compound. EDTA was used as a positive control. All the experiments were performed three times by quadruplicate for each compound concentration.
Structure (SMILES),IC50 [1] [µM],IC50 [3] [µM],ABTS-TEAC100 [1],FRAP-TEAC100 [2],FRAP Assay (%) at 100 µM [2] [%],FRAP Assay (%) at 200 µM [2] [%],IC50 at 24 h [4] [µM],Inhibition of the Fe^+2-Ferrozine complex [5]
"COc1cc(/C=C/C(O)=C/C(=O)C(F)(F)F)ccc1O [Compound 1b, (3Z,5E)-1,1,1-trifluoro-4-hydroxy-6-(4-hydroxy-3-methoxyphenyl)hexa-3,5-dien-2-one]",34.6 ± 2.7,53.8 ± 2.6,0.73,0.64,36.6,61.4,102 ± 5.6,
"COc1cc(/C=C/C(O)=C/C(=O)c2ccccc2)ccc1F [Compound 2a, (2Z,4E)-5-(4-fluoro-3-methoxyphenyl)-3-hydroxy-1-phenylpenta-2,4-dien-1-one]",> 600,,0.21,0.00,0.1,0.7,75.7 ± 5.4,
"COc1cc(/C=C/C(O)=C/C(=O)C(F)(F)F)ccc1F [Compound 2b, (3Z,5E)-1,1,1-trifluoro-6-(4-fluoro-3-methoxyphenyl)-4-hydroxyhexa-3,5-dien-2-one]",> 600,,0.23,0.03,1.9,3.1,88 ± 4.5,
"O=C(/C=C(O)/C=C/c1ccc(O)c(F)c1)c1ccccc1 [Compound 3a, (2Z,4E)-5-(3-fluoro-4-hydroxyphenyl)-3-hydroxy-1-phenylpenta-2,4-dien-1-one]",60.2 ± 2.2,,0.51,0.33,20.5,31.0,98.1 ± 8.3,
"O=C(/C=C(O)/C=C/c1ccc(F)c(O)c1F)C(F)(F)F [Compound 5b, (3Z,5E)-6-(2,4-difluoro-3-hydroxyphenyl)-1,1,1-trifluoro-4-hydroxyhexa-3,5-dien-2-one]",518 ± 94.6,,0.32,0.05,3.0,4.7,153 ± 21,
"O=C(O)CN(CCN(CC(=O)O)CC(=O)O)CC(=O)O [EDTA, reference compound]",,,,,,,,completely inhibits
"Cc1c(C)c2c(c(C)c1O)CCC(C)(C(=O)O)O2 (centres unmarked) [Trolox, reference compound]",34 ± 2.3,19 ± 1.8,1,1,53.0,100.0,,

# The remaining molecules from weak to strong by IC50 [1], led by results:
IC50 [1] [µM],IC50 [3] [µM],Structure (SMILES),ABTS-TEAC100 [1],FRAP-TEAC100 [2],FRAP Assay (%) at 100 µM [2] [%],FRAP Assay (%) at 200 µM [2] [%],IC50 at 24 h [4] [µM],Inhibition of the Fe^+2-Ferrozine complex [5]
275 ± 35.3,,"O=C(/C=C(O)/C=C/c1ccc(F)c(O)c1F)c1ccccc1 [Compound 5a, (2Z,4E)-5-(2,4-difluoro-3-hydroxyphenyl)-3-hydroxy-1-phenylpenta-2,4-dien-1-one]",0.23,0.05,3.4,5.3,119 ± 8.5,
216 ± 39.5,,"O=C(/C=C(O)/C=C/c1ccc(O)cc1F)C(F)(F)F [Compound 4b, (3Z,5E)-1,1,1-trifluoro-6-(2-fluoro-4-hydroxyphenyl)-4-hydroxy-hexa-3,5-dien-2-one]",0.52,0.09,4.8,8.5,138 ± 6.5,
113 ± 12.4,,"O=C(/C=C(O)/C=C/c1ccc(O)c(F)c1)C(F)(F)F [Compound 3b, (3Z,5E)-1,1,1-trifluoro-6-(3-fluoro-4-hydroxyphenyl)-4-hydroxyhexa-3,5-dien-2-one]",0.67,0.34,19.7,32.6,109 ± 7.6,
108 ± 7.6,,"O=C(/C=C(O)/C=C/c1ccc(O)cc1F)c1ccccc1 [Compound 4a, (2Z,4E)-5-(2-fluoro-4-hydroxyphenyl)-3-hydroxy-1-phenylpenta-2,4-dien-1-one]",0.40,0.15,9.8,14.3,104 ± 7.1,
67.2 ± 2.7,,"O=C(/C=C(O)/C=C/c1cc(F)c(O)cc1F)c1ccccc1 [Compound 6a, (2Z,4E)-5-(2,5-difluoro-4-hydroxyphenyl)-3-hydroxy-1-phenylpenta-2,4-dien-1-one]",0.51,0.25,15.5,25.2,134 ± 6.6,
